# Data as given in patent US10544141B2, “Derivatives and methods of treating hepatitis B infections” (Novira Therapeutics, Inc., priority 2014, dated 2020).
# pEC50: −log10 of the molar value.
# Test system: HBV
# Assay: HBV replication inhibition assay (BDNA assay) in HepG2.2.15 cells
# Type: cell-based
# Settings: Hepatitis B virus, HepG2.2.15, 144 h, 6 days treatment, encapsidated HBV DNA in supernatant by branched DNA QuantiGene assay
# From the text: HBV replication inhibition by the compounds of this invention could be determined in cells infected or transfected with HBV, or cells with stably integrated HBV, such as HepG2.2.15 cells (Sells et al. 1987). In this example, HepG2.2.15 cells were maintained in cell culture medium containing 10% fetal bovine serum (FBS), Geneticin, L-glutamine, penicillin and streptomycin. HepG2.2.15 cells could be seeded in 96-well plates at a density of 40,000 cells/well and be treated with serially diluted compounds at a final DMSO concentration of 0.5% either alone or in combination by adding drugs in a checker box format. Cells were incubated with compounds for three days, after which medium was removed and fresh medium containing compounds was added to cells and incubated for another three days. At day 6, supernatant was removed and treated with DNase at 37° C. for 60 minutes, followed by enzyme inactivation at 75° C. for 15 minutes. Encapsidated HBV DNA was released from the virions and covalently linked HBV polymerase by incubating in lysis buffer (Affymetrix QS0010) containing 2.5 μg proteinase K at 50° C. for 40 minutes. HBV DNA was denatured by addition of 0.2 M NaOH and detected using a branched DNA (BDNA) QuantiGene assay kit according to manufacturer recommendation (Affymetrix). HBV DNA levels could also be quantified using qPCR, based on amplification of encapsidated HBV DNA extraction with QuickExtraction Solution (Epicentre Biotechnologies) and amplification of HBV DNA using HBV specific PCR probes that can hybridize to HBV DNA and a fluorescently labeled probe for quantitation. In addition, cell viability of HepG2.2.15 cells incubated with test compounds alone or in combination was determined by using CellTitre-Glo reagent according to the manufacturer protocol (Promega). The mean background signal from wells containing only culture medium was subtracted from all other samples, and percent inhibition at each compound concentration was calculated by normalizing to signals from HepG2.2.15 cells treated with 0.5% DMSO using equation E1. % inhibition=(DMSOave−Xi)/DMSOave×100% E1: where DMSOave is the mean signal calculated from the wells that were treated with DMSO control (0% inhibition control) and Xi is the signal measured from the individual wells. EC50 values, effective concentrations that achieved 50% inhibitory effect, were determined by non-linear fitting using Graphpad Prism software (San Diego, Calif.) and equation E2 Y=Y min+(Y max−Y min)/(1+10(Log EC50−X)×HillSlope) E2: […]
# where Y represents percent inhibition values and X represents the logarithm of compound concentrations.
# Selected compounds of the invention were assayed in the HBV replication assay (BDNA assay), as described above and a representative group of these active compounds is shown in Table 3. […] In Table 3, “A” represents 0.01<EC50<0.10; “B” represents 0.10≤EC50<0.50; and “C” represents 0.50≤EC50<1.0; (‘+’ indicates >50% activity at 10 μM).
row,SMILES,pEC50
1,"CCCc1n[nH]c2c1CN(C(=O)Nc1cccc(Cl)c1)CC2 [Compound 644, N-(3-chlorophenyl)-3-propyl-1,4,6,7-tetrahydropyrazolo[4,3-c]pyridine-5-carboxamide]",6.30 to 7.00
2,O=C(Nc1ccnc(Cl)c1F)N1CCc2[nH]nc(C3CCC3)c2C1 [Compound 660],6.30 to 7.00
3,Cc1cccc(NC(=O)N2CCc3[nH]nc(C4CCC4)c3C2)c1 [Compound 661],6.30 to 7.00
4,O=C(Nc1cccc(Br)c1F)N1CCc2[nH]nc(C3CCC3)c2C1 [Compound 662],7.00 to 8.00
5,O=C(Nc1cccc(Br)c1)N1CCc2[nH]nc(C3CCC3)c2C1 [Compound 663],7.00 to 8.00
6,O=C(Nc1ccnc(Br)c1F)N1CCc2[nH]nc(C3CCC3)c2C1 [Compound 664],6.30 to 7.00
7,O=C(Nc1ccc(F)c(Cl)c1)N1CCc2[nH]nc(C3CCC3)c2C1 [Compound 665],7.00 to 8.00
8,Cc1cc(NC(=O)N2CCc3[nH]nc(C4CCC4)c3C2)ccc1F [Compound 666],7.00 to 8.00
9,O=C(Nc1ccc(F)c(Br)c1)N1CCc2[nH]nc(C3CCC3)c2C1 [Compound 667],7.00 to 8.00
10,N#Cc1cc(NC(=O)N2CCc3[nH]nc(C4CCC4)c3C2)ccc1F [Compound 668],7.00 to 8.00
11,O=C(Nc1ccc(F)c(F)c1)N1CCc2[nH]nc(C3CCC3)c2C1 [Compound 669],6.30 to 7.00
12,"O=C(Nc1cccc(Cl)c1)N1CCc2[nH]nc(C3CC=CC3)c2C1 [Compound 693, N-(3-chlorophenyl)-3-cyclopent-3-en-1-yl-1,4,6,7-tetrahydropyrazolo[4,3-c]pyridine-5-carboxamide]",7.00 to 8.00
13,"CC1(c2n[nH]c3c2CN(C(=O)Nc2cccc(Cl)c2)CC3)CCC1 [Compound 694, N-(3-chlorophenyl)-3-(1-methylcyclobutyl)-1,4,6,7-tetrahydropyrazolo[4,3-c]pyridine-5-carboxamide]",7.00 to 8.00
14,"CCC(F)(F)c1n[nH]c2c1CN(C(=O)Nc1cccc(Cl)c1)CC2 [Compound 696, N-(3-chlorophenyl)-3-(1,1-difluoropropyl)-1,4,6,7-tetra hydropyrazolo[4,3-c]pyridine-5-carboxamide]",6.30 to 7.00
15,"O=C(Nc1cccc(Cl)c1)N1CCc2[nH]nc(C3(C(F)(F)F)CC3)c2C1 [Compound 700, N-(3-chlorophenyl)-3-[1-(trifluoromethyl)cyclopropyl]-1,4,6,7-tetrahydropyrazolo[4,3-c]pyridine-5-carboxamide]",6.30 to 7.00
16,"O=C(Nc1cccc(Cl)c1)N1CCc2[nH]nc(C3CCC(O)C3)c2C1 (centres unmarked) [Compound 742, N-(3-chlorophenyl)-3-(3-hydroxycyclopentyl)-1,4,6,7-tetrahydropyrazolo[4,3-c] pyridine-5-carboxamide]",6.30 to 7.00
17,"O=C(Nc1cccc(Cl)c1)N1CCc2[nH]nc(C3=CC(F)CC3)c2C1 (centres unmarked) [Compound 744, N-(3-chlorophenyl)-3-(3-fluorocyclopenten-1-yl)-1,4,6,7-tetrahydropyrazolo[4,3-c]pyridine-5-carboxamide]",7.00 to 8.00
18,O=C(Nc1ccnc(Cl)c1F)N1CCc2[nH]nc(C34CCCC3C4)c2C1 (centres unmarked) [Compound 782],7.00 to 8.00
19,Cc1cccc(NC(=O)N2CCc3[nH]nc(C45CCCC4C5)c3C2)c1 (centres unmarked) [Compound 783],7.00 to 8.00
20,O=C(Nc1cccc(Br)c1F)N1CCc2[nH]nc(C34CCCC3C4)c2C1 (centres unmarked) [Compound 784],7.00 to 8.00
21,O=C(Nc1cccc(Br)c1)N1CCc2[nH]nc(C34CCCC3C4)c2C1 (centres unmarked) [Compound 785],7.00 to 8.00
22,N#Cc1cccc(NC(=O)N2CCc3[nH]nc(C45CCCC4C5)c3C2)c1F (centres unmarked) [Compound 786],7.00 to 8.00
23,O=C(Nc1ccc(F)c(Cl)c1)N1CCc2[nH]nc(C34CCCC3C4)c2C1 (centres unmarked) [Compound 787],7.00 to 8.00
24,Cc1cc(NC(=O)N2CCc3[nH]nc(C45CCCC4C5)c3C2)ccc1F (centres unmarked) [Compound 788],7.00 to 8.00
25,O=C(Nc1ccc(F)c(Br)c1)N1CCc2[nH]nc(C34CCCC3C4)c2C1 (centres unmarked) [Compound 789],7.00 to 8.00
26,N#Cc1cc(NC(=O)N2CCc3[nH]nc(C45CCCC4C5)c3C2)ccc1F (centres unmarked) [Compound 790],7.00 to 8.00
27,O=C(Nc1ccnc(Br)c1F)N1CCc2[nH]nc(C34CCCC3C4)c2C1 (centres unmarked) [Compound 791],7.00 to 8.00
28,O=C(Nc1ccc(F)c(F)c1)N1CCc2[nH]nc(C34CCCC3C4)c2C1 (centres unmarked) [Compound 792],6.30 to 7.00
29,"O=C(Nc1cccc(Cl)c1)N1CCc2[nH]nc(C3CCCO3)c2C1 (centres unmarked) [Compound 861, N-(3-chlorophenyl)-3-tetrahydrofuran-2-yl-1,4,6,7-tetrahydropyrazolo[4,3-c]pyridine-5-carboxamide]",7.00 to 8.00
